Key:
WM cells [1] = conditions: cited from earlier work
WM cells [2] = conditions: cited from earlier work; remark: listed apart in the source
BCWM.1-mCherry+ cells = assay: In vivo homing and tumor progression of wild-type WM cells; set-up: species or system SCID/Bg mice; conditions: human IgM ELISA at end of study; P<0.05
Experimental: Serum was collected at the end of the study. […] Cell toxicity was performed by MTT. […] Bars indicate standard deviation.
Human serum IgM levels were determined by using a human IgM ELISA assay (ZeptoMetrix, Buffalo, N.Y.), according to the manufacturer's protocol.
SCID/Bg mice (n=5/group) were injected with BCWM.1 infected with either precision LentiORF/CXCR4/GFP (CXCR4^+)- or empty vector probe/RFP (control)-infected BCWM.1 cells. After three weeks, mice were euthanized and organs harvested. Hematoxylin-eosin staining, immunohistochemistry for human-CD20 and -CXCR4 were performed on explanted organs. Independent experiments were conducted to evaluate differences in survival (SCID/Bg mice, n=7/group). Similar studies were conducted using […]/CXCR4-mutated cells and control vector-infected cells (control cells). In vivo homing studies were performed using BCWM.1-mCherry^+ cells: cells were injected intravenously into […] mice and treated with either BMS-936564 or control antibody (10 mg/kg, intraperitoneally; 3-4 times per week for 3 weeks). The ability of BMS-936564 to modulate WM homing to BM, spleen and lymph nodes was evaluated ex vivo at the third week on explanted tissues, by using a fluorescence microscope (Nikon Eclipse 80i, Melville, N.Y.) (Roccaro et al., 2013).
The anti-WM activity of BMS-936564 was also tested in vivo using wild-type WM cells. BCWM.1-mCherry^+ cells were injected intravenously into SCID/Bg mice and treated mice with either BMS-936564 or control antibody.
As CXCR4 inhibition is thought to induce stem cell and tumor cell mobilization, it was hypothesized that BMS-936564 may also induce mobilization of WM cells leading to increased chemosensitivity to anti-WM agents. Accordingly, the effect of BMS-936564 in modulating tumor progression and WM cell dissemination to distant BM niches in vivo was evaluated as monotherapy or in combination with bortezomib.

[3] = system: C1013G/CXCR4-WM cell lines (BCWM1; MWCL1); assay: Cytotoxicity (MTT) of anti-WM agents, 48 h exposure; assay type: cell-based, human; conditions: vs control vector-infected cells
Text: FIGS. 13A and 13B show GSEA enrichment plots of multiple drug resistance and response to drug signature genes in C1013G/CXCR4-mutated cells and control vector-infected cells (control cells), respectively. The plotted curves show the enrichment score and reflect the degree to which each gene (vertical lines) is represented at the top or bottom of the ranked gene list. The heat map indicates the relative abundance (left to right) of the genes specifically enriched in the mutated cells as compared with the control cells. Gene sets were considered enriched with a FDR always <0.25. Normalized enrichments score (NES) and FDR are shown per each gene set analyzed. FIGS. 13C-13G show the effects on C1013G/CXCR4-WM cell lines (BCWM1; MWCL1) or control vector-infected cells (control) exposed to everolimus, ibrutinib, idelalisib, bortezomib, and carfilzomib for 48 h.
Everolimus, idelalisib, ibrutinib, bortezomib, and carfilzomib were purchased from Selleck Chemicals (Houston, Tex.). Drugs were dissolved in dimethylsulfoxide and subsequently diluted in cell culture medium (10% fetal bovine serum) immediately before use.

Row | Compound | adhesion of WM cells to fibronectin, stromal cells, and endothelial cells (WM cells [1]) | migration of WM cells (WM cells [2]) | serum IgM levels (BCWM.1-mCherry+ cells) | sensitivity of C1013G/CXCR4-mutated WM cells compared with unmutated control cells [3]
1 | c1cc(CN2CCCNCCNCCCNCC2)ccc1CN1CCCNCCNCCCNCC1 [AMD3100, plerixafor] | significantly inhibit | significantly inhibit |  | 
2 | CC(C)C[C@H](NC(=O)[C@H](Cc1ccccc1)NC(=O)c1cnccn1)B(O)O [bortezomib, reference compound] |  |  | significantly reduced | equally sensitive
3 | CC(C)C[C@H](NC(=O)[C@H](CCc1ccccc1)NC(=O)CN1CCOCC1)C(=O)N[C@@H](Cc1ccccc1)C(=O)N[C@@H](CC(C)C)C(=O)[C@@]1(C)CO1 [carfilzomib] |  |  |  | equally sensitive
4 | CO[C@H]1C[C@@H]2CC[C@@H](C)[C@@](O)(O2)C(=O)C(=O)N2CCCC[C@H]2C(=O)O[C@H]([C@H](C)C[C@@H]2CC[C@@H](OCCO)[C@H](OC)C2)CC(=O)[C@H](C)/C=C(\C)[C@@H](O)[C@@H](OC)C(=O)[C@H](C)C[C@H](C)/C=C/C=C/C=C/1C [everolimus] |  |  |  | resistance
5 | CC[C@H](Nc1ncnc2[nH]cnc12)c1nc2cccc(F)c2c(=O)n1-c1ccccc1 [idelalisib] |  |  |  | resistance
